Test results reported in article PMC11050599, “Novel Tetracyclic Azaphenothiazines with the Quinoline Ring as New Anticancer and Antibacterial Derivatives of Chlorpromazine” (International Journal of Molecular Sciences, 2024).
Values after ≈ are worked out from the molar mass of the structure shown.

How the values were obtained:
[1] = system: A549 (lung cancer); assay: MTT assay, A549 cells; assay type: cell-based, human
In short: (§1)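 After a 72 h incubation of 1 × 10^4 cells per well with compound, absorbance from MTT reduction was converted to percent of the medium-only control.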

[2] = system: MDA-MB-231 (breast cancer); assay: MTT assay, MDA-MB-231 cells; assay type: cell-based, human
In short: (§2)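 HCT116 grew in MEM, PC3 in RPMI and MDA-MB-231 and HaCaT in high-glucose DMEM, all supplemented with 10% FBS and 20 mM HEPES. Compounds were incubated with 1 × 10^4 cells per well for 72 h, and viability was derived from MTT absorbance against untreated cells.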

[3] = system: HaCaT (immortalized human keratinocytes); assay: MTT assay, HaCaT normal cells; assay type: cell-based; settings: Homo sapiens, HaCaT; MTT, 72 h, normal cells; read-out: IC50 HaCaT (Table 3)
In short: as §2

[4] = system: MiaPaCa-2 (pancreas cancer); assay: MTT assay, MiaPaCa-2 cells; assay type: cell-based, human
In short: as §1

[5] = system: PC3 (prostate cancer); assay: MTT assay, PC3 cells; assay type: cell-based, human
In short: as §2

[6] = system: HCT116 (colon cancer); assay: MTT assay, HCT116 cells; assay type: cell-based, human
In short: as §2

[7] = system: E. coli ATCC 25922; assay: MIC broth microdilution; assay type: cell-based; settings: Escherichia coli, ATCC25922; 19 h, 35 °C; read-out: MIC E. coli ATCC 25922
In short: (§3)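 Two-fold serial broth microdilution in Mueller-Hinton II broth, final inoculum adjusted to […]. Compounds dissolved in DMSO, final solvent at most 1%.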

[8] = system: P. aeruginosa ATCC 15442; assay: MIC broth microdilution; assay type: cell-based; settings: Pseudomonas aeruginosa, ATCC15442; 19 h, 35 °C; read-out: MIC P. aeruginosa ATCC 15442
In short: as §3

[9] = system: S. aureus ATCC 25923; assay: MIC broth microdilution; assay type: cell-based; settings: Staphylococcus aureus, ATCC25923; 19 h, 35 °C; read-out: MIC S. aureus ATCC 25923
In short: as §3

[10] = system: S. aureus ATCC 29213; assay: MIC broth microdilution; assay type: cell-based; settings: Staphylococcus aureus, ATCC29213; 19 h, 35 °C; read-out: MIC S. aureus ATCC 29213
In short: as §3

[11] = system: S. aureus ATCC 6538; assay: MIC broth microdilution; assay type: cell-based; settings: Staphylococcus aureus, ATCC6538; 19 h, 35 °C; read-out: MIC S. aureus ATCC 6538
In short: as §3

[12] = system: S. aureus NCTC 4163; assay: MIC broth microdilution; assay type: cell-based; settings: 19 h, 35 °C
In short: as §3

[13] = system: S. epidermidis ATCC 12228; assay: MIC broth microdilution; assay type: cell-based; settings: Staphylococcus epidermidis, ATCC12228; 19 h, 35 °C; read-out: MIC S. epidermidis ATCC 12228
In short: as §3

[14] = system: S. epidermidis ATCC 35984; assay: MIC broth microdilution; assay type: cell-based; settings: Staphylococcus epidermidis, ATCC35984; 19 h, 35 °C; read-out: MIC S. epidermidis ATCC 35984
In short: as §3

[15] = system: cancer cell lines; assay: MTT assay, summary over several cell lines; assay type: cell-based, human; settings: Homo sapiens; range over two cell lines not given; read-out: IC50 range against two tested cell lines
Protocol: The human cell lines, such as A549 (lung cancer), MDA-MB-231 (breast cancer), MiaPaca-2 (pancreatic cancer), PC3 (metastatic prostate cancer), HCT-116 (colon carcinoma), and HaCaT (immortalized keratinocytes), were sourced from the American Type Culture Collection (ATCC) in Rockville, USA. Culturing conditions varied as follows: HCT116 cells were cultured in MEM (ThermoSci, Waltham, MA, USA), A549, MDA-MB-231, MiaPaca, HaCaT cells in DMEM High Glucose and PC3 cells were cultured in RPMI (Biowest SAS, Nuaillé, France). The growth medium consisted of 10% fetal bovine serum (FBS, Sigma-Aldrich, St. Louis, MO, USA), 20 mM HEPES (Biowest, Nuaillé, France), and antibiotics (100 U/mL of penicillin and 100 μg/mL of streptomycin) from Gibco, Grand Island, NY, USA. […] These compounds were added to 96-well plates containing study cells (1 × 10^4 cells per well) and incubated for 72 h. […] Cell absorbance results were incorporated into the formula for calculating the relative MTT level (%), enabling the assessment of cell viability following exposure to the test compounds. The cell viability percentage represents the MTT reduction in cells treated with the test compounds compared to the control sample, where only the medium was added to the cells.

[16] = system: HCT116 cells; assay: Cell cycle analysis by flow cytometry, HCT116; assay type: cell-based, human; settings: IC50, 24 h, compared to the control
Protocol: In brief, cells were seeded at a density of 1 × 10^5 cells/well on a six-well plate and allowed to adhere for 24 h. […] Both population cells (the attached and detached) were collected and centrifuged at 400× g for 5 min at 4 °C. After centrifugation, the cells were washed twice with 0.9% NaCl and subsequently fixed in 500 μL of 70 % cold ethanol overnight.
Before analysis, the fixed cells underwent another centrifugation step at 850× g for 5 min at 4 °C and were washed with PBS. Following the washes, the cells were incubated with 50 μL of RNase (100 μg/mL) and 200 μL of propidium iodide (PI) (50 μg/mL) at 37 °C for 30 min in the dark. Finally, 100 μL of PBS was added to each sample. Flow cytometry (Becton Dickinson FACS Verse, Franklin Lakes, NJ, USA) was then used to analyze the cell cycle distribution, identifying cells in various stages including sub-G1, G0/G1, S, and G2/M phases. Each assay was performed in quadruplicate.

[17] = SI = IC50 for normal cell line (HaCaT)/IC50 cancer cell line

- IC50 ([1]; Homo sapiens, A549, MTT, 72 h, mean SD, read-out: IC50 A549): 16 ± 4.2 µM
- IC50 ([2]; Homo sapiens, MDA-MB-231, MTT, 72 h, MDA-MB231, read-out: IC50 MDA): 16.7 ± 1.1 µM
- IC50 ([4]; Homo sapiens, MIA PaCa-2, MTT, 72 h, read-out: IC50 MiaPaCa-2): 24.3 ± 3.5 µM
- IC50 ([5]; Homo sapiens, PC-3, MTT, 72 h, read-out: IC50 PC3): 16.7 ± 1.8 µM
- IC50 ([6]; Homo sapiens, HCT-116, MTT, 72 h, read-out: IC50 HCT116): 7.7 ± 1.2 µM
- MIC [7]: > 256 µg/mL
- MIC [8]: > 256 µg/mL
- MIC [9]: 128 µg/mL (≈ 312 µM)
- MIC [10]: 128 µg/mL (≈ 312 µM)
- MIC [11]: 128 µg/mL (≈ 312 µM)
- MIC S. aureus NCTC 4163 [12]: 8 µg/mL (≈ 19.5 µM)
- MIC ([12]; Staphylococcus aureus, NCTC4163, read-out: MIC S. aureus NCTC 4163): 8 µg/mL (≈ 19.5 µM)
- MIC [13]: 256 µg/mL (≈ 624 µM)
- MIC [14]: 256 µg/mL (≈ 624 µM)
- IC50 [15]: 16.1 to 16.7 µM
SMILES: CN1CCCCC1CCN1c2cc(Cl)ccc2Sc2cc3ccccc3nc21 (stereo not shown) [Compound 11, 8-Chloro-6-(2-(1-methylpiperidin-2-yl)ethyl)-quino[3,2-b]benzo[1,4]thiazine]
- SI A549 [1, 17]: 1
- SI MDA [2, 17]: 0.9
- IC50 [3]: 12.7 ± 1.9 µM
- SI MiaPaCa-2 [4, 17]: 0.5
- SI PC3 [5, 17]: 0.7
- SI HCT116 [6, 17]: 1.6
- increase in the cell amount at the sub-G1 phase, HCT116 [16]: 2 fold
